Measurements as given in US20210154186A1, “COMPOSITIONS AND METHODS FOR INHIBITING DIHYDROOROTATE DEHYDROGENASE” (Clear Creek Bio, Inc., priority 2018, published 2021).
Where two headings read alike, the source gives them in different places.

Tests used:
solid malignancies = settings: 43 patients; patient with papillary carcinoma of the thyroid; cited from earlier work
DHODH [1] = molecular target: DHODH (Mus musculus, UniProt O35435); experiment: DHO remaining in plasma of mice after brequinar 50 mg/kg (FIG. 6); settings: at about 84 hours
DHODH (Mus musculus, UniProt O35435), sequence (O35435 whole entry): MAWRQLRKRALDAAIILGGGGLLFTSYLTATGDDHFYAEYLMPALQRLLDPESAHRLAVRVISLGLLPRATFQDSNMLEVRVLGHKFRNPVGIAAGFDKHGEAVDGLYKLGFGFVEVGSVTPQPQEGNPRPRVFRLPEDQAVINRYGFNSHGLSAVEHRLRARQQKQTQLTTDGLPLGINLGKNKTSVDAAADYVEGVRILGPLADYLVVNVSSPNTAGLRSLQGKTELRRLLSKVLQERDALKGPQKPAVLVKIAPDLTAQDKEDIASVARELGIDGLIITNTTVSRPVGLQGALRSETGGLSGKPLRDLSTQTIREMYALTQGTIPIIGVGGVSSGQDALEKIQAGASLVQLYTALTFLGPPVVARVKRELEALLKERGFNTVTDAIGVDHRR

[2] = mouse model of AML, daily administration of high doses; cited from earlier work
[3] = 650 mg/m^2 brequinar (days 1, 8 and 15) with 75 mg/m^2 cisplatin (day 1); cited from earlier work
[4] = test system: leukemia-initiating cell activity; settings: mouse models of AML; only when elevated plasma levels are maintained for extended periods; cited from earlier work
[5] = Adverse events observed in subjects receiving brequinar intravenously once weekly; assay type: in vivo, human; settings: 209 subjects, i.v. once week, median dose 1200 mg/m^2
[6] = test system: acute myeloid leukemia (AML); experiment: Clinical response of patients with AML to brequinar-containing composition; assay type: in vivo, human
DHODH [7] = molecular target: DHODH (Homo sapiens, UniProt Q02127); settings: for DHO plasma level threshold achieved: after a dose
DHODH (Homo sapiens, UniProt Q02127), sequence (Q02127 whole entry): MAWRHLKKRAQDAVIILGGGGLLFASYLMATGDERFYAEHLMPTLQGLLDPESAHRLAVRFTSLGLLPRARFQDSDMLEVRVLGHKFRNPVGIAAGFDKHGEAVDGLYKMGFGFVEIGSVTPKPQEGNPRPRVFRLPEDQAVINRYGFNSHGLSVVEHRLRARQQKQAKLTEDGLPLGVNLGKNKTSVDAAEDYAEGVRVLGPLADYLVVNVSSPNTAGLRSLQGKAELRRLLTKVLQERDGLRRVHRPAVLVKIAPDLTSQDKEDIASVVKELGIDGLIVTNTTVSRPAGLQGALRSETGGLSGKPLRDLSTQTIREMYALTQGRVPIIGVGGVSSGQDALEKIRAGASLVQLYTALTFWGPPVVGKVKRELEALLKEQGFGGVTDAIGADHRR

[8] = Example 9, first patient, threshold 1,600 ng/mL
[9] = Example 10, second patient, threshold 2,900 ng/mL
[10] = Example 11, threshold 133 ng/mL

## Cc1c(-c2ccc(-c3ccccc3F)cc2)nc2ccc(F)cc2c1C(=O)O [Brequinar sodium]
Solid malignancies
  tumour response observed: One mixed response

## Cc1c(-c2ccc(-c3ccccc3F)cc2)nc2ccc(F)cc2c1C(=O)O [Brequinar, 6-fluoro-2-(2′-fluoro-1,1′ biphenyl-4-yl)-3-methyl-4-quinoline carboxylic acid]
DHODH [1]
  concentration of DHO remaining in the plasma: about 100 ng/mL
[2]
  toxic effects: weight loss, anemia, and thrombocytopenia
[3]
  effect of the combination on individual drug pharmacokinetic parameters: without significant modifications of individual drug pharmacokinetic parameters
[4]
  effect on leukemia-initiating cell activity: decreases leukemia-initiating cell activity
[5]
  All Body Systems: No. of Patients Experiencing the AE, 5y Max Grade 1: 36
  All Body Systems: No. of Patients Experiencing the AE, 5y Max Grade 2: 76
  All Body Systems: No. of Patients Experiencing the AE, 5y Max Grade 3: 55
  All Body Systems: No. of Patients Experiencing the AE, 5y Max Grade 4: 35
  Anemia: No. of Patients Experiencing the AE, 5y Max Grade 1: 14
  Anemia: No. of Patients Experiencing the AE, 5y Max Grade 2: 48
  Anemia: No. of Patients Experiencing the AE, 5y Max Grade 3: 23
  Anemia: No. of Patients Experiencing the AE, 5y Max Grade 4: 5
  Anorexia: No. of Patients Experiencing the AE, 5y Max Grade 1: 11
  Anorexia: No. of Patients Experiencing the AE, 5y Max Grade 2: 3
  Anorexia: No. of Patients Experiencing the AE, 5y Max Grade 3: 1
  Anorexia: No. of Patients Experiencing the AE, 5y Max Grade 4: 0
  Constipation: No. of Patients Experiencing the AE, 5y Max Grade 1: 6
  Constipation: No. of Patients Experiencing the AE, 5y Max Grade 2: 2
  Constipation: No. of Patients Experiencing the AE, 5y Max Grade 3: 1
  Constipation: No. of Patients Experiencing the AE, 5y Max Grade 4: 0
  Diarrhea: No. of Patients Experiencing the AE, 5y Max Grade 1: 43
  Diarrhea: No. of Patients Experiencing the AE, 5y Max Grade 2: 21
  Diarrhea: No. of Patients Experiencing the AE, 5y Max Grade 3: 10
  Diarrhea: No. of Patients Experiencing the AE, 5y Max Grade 4: 3
  Dyspepsia: No. of Patients Experiencing the AE, 5y Max Grade 1: 6
  Dyspepsia: No. of Patients Experiencing the AE, 5y Max Grade 2: 1
  Dyspepsia: No. of Patients Experiencing the AE, 5y Max Grade 3: 0
  Dyspepsia: No. of Patients Experiencing the AE, 5y Max Grade 4: 0
  Fatigue: No. of Patients Experiencing the AE, 5y Max Grade 1: 23
  Fatigue: No. of Patients Experiencing the AE, 5y Max Grade 2: 8
  Fatigue: No. of Patients Experiencing the AE, 5y Max Grade 3: 2
  Fatigue: No. of Patients Experiencing the AE, 5y Max Grade 4: 0
  Fever: No. of Patients Experiencing the AE, 5y Max Grade 1: 4
  Fever: No. of Patients Experiencing the AE, 5y Max Grade 2: 7
  Fever: No. of Patients Experiencing the AE, 5y Max Grade 3: 0
  Fever: No. of Patients Experiencing the AE, 5y Max Grade 4: 0
  Granulocytopenia: No. of Patients Experiencing the AE, 5y Max Grade 1: 16
  Granulocytopenia: No. of Patients Experiencing the AE, 5y Max Grade 2: 17
  Granulocytopenia: No. of Patients Experiencing the AE, 5y Max Grade 3: 3
  Granulocytopenia: No. of Patients Experiencing the AE, 5y Max Grade 4: 5
  Headache: No. of Patients Experiencing the AE, 5y Max Grade 1: 4
  Headache: No. of Patients Experiencing the AE, 5y Max Grade 2: 3
  Headache: No. of Patients Experiencing the AE, 5y Max Grade 3: 0
  Headache: No. of Patients Experiencing the AE, 5y Max Grade 4: 0
  Infection: No. of Patients Experiencing the AE, 5y Max Grade 1: 4
  Infection: No. of Patients Experiencing the AE, 5y Max Grade 2: 3
  Infection: No. of Patients Experiencing the AE, 5y Max Grade 3: 0
  Infection: No. of Patients Experiencing the AE, 5y Max Grade 4: 0
  Leukopenia: No. of Patients Experiencing the AE, 5y Max Grade 1: 26
  Leukopenia: No. of Patients Experiencing the AE, 5y Max Grade 2: 31
  Leukopenia: No. of Patients Experiencing the AE, 5y Max Grade 3: 10
  Leukopenia: No. of Patients Experiencing the AE, 5y Max Grade 4: 2
  Mucositis: No. of Patients Experiencing the AE, 5y Max Grade 1: 23
  Mucositis: No. of Patients Experiencing the AE, 5y Max Grade 2: 15
  Mucositis: No. of Patients Experiencing the AE, 5y Max Grade 3: 11
  Mucositis: No. of Patients Experiencing the AE, 5y Max Grade 4: 3
  Nausea: No. of Patients Experiencing the AE, 5y Max Grade 1: 59
  Nausea: No. of Patients Experiencing the AE, 5y Max Grade 2: 19
  Nausea: No. of Patients Experiencing the AE, 5y Max Grade 3: 12
  Nausea: No. of Patients Experiencing the AE, 5y Max Grade 4: 1
  Pain Inject Site: No. of Patients Experiencing the AE, 5y Max Grade 1: 24
  Pain Inject Site: No. of Patients Experiencing the AE, 5y Max Grade 2: 0
  Pain Inject Site: No. of Patients Experiencing the AE, 5y Max Grade 3: 0
  Pain Inject Site: No. of Patients Experiencing the AE, 5y Max Grade 4: 0
  Pain, Abdominal: No. of Patients Experiencing the AE, 5y Max Grade 1: 4
  Pain, Abdominal: No. of Patients Experiencing the AE, 5y Max Grade 2: 3
  Pain, Abdominal: No. of Patients Experiencing the AE, 5y Max Grade 3: 1
  Pain, Abdominal: No. of Patients Experiencing the AE, 5y Max Grade 4: 0
  Rash: No. of Patients Experiencing the AE, 5y Max Grade 1: 26
  Rash: No. of Patients Experiencing the AE, 5y Max Grade 2: 15
  Rash: No. of Patients Experiencing the AE, 5y Max Grade 3: 9
  Rash: No. of Patients Experiencing the AE, 5y Max Grade 4: 3
  Somnolence: No. of Patients Experiencing the AE, 5y Max Grade 1: 7
  Somnolence: No. of Patients Experiencing the AE, 5y Max Grade 2: 2
  Somnolence: No. of Patients Experiencing the AE, 5y Max Grade 3: 0
  Somnolence: No. of Patients Experiencing the AE, 5y Max Grade 4: 0
  Stomatitis: No. of Patients Experiencing the AE, 5y Max Grade 1: 32
  Stomatitis: No. of Patients Experiencing the AE, 5y Max Grade 2: 20
  Stomatitis: No. of Patients Experiencing the AE, 5y Max Grade 3: 7
  Stomatitis: No. of Patients Experiencing the AE, 5y Max Grade 4: 1
  Thrombocytopenia: No. of Patients Experiencing the AE, 5y Max Grade 1: 26
  Thrombocytopenia: No. of Patients Experiencing the AE, 5y Max Grade 2: 31
  Thrombocytopenia: No. of Patients Experiencing the AE, 5y Max Grade 3: 16
  Thrombocytopenia: No. of Patients Experiencing the AE, 5y Max Grade 4: 21
  Vomit: No. of Patients Experiencing the AE, 5y Max Grade 1: 32
  Vomit: No. of Patients Experiencing the AE, 5y Max Grade 2: 24
  Vomit: No. of Patients Experiencing the AE, 5y Max Grade 3: 12
  Vomit: No. of Patients Experiencing the AE, 5y Max Grade 4: 5
[6]; Example 9, first patient, […], improvement of extramedullary hematopoiesis, shift to more differentiation in peripheral blasts
  clinical response: positive response
[6]; Example 10, second patient, lowering of peripheral blasts, increase in absolute neutrophil count, greater differentiation of peripheral blasts
  clinical response: positive response
[6]; Example 11, indicated by a trend towards differentiation of peripheral blasts
  clinical response: positive response
DHODH [7]; Example 9, first patient with AML
  DHO plasma level threshold achieved: 1,600 ng/mL
DHODH [7]; [8]
  time remained above the DHO threshold: 84 h
  time to achieve the DHO plasma level threshold: less than 24 hours
DHODH [7]; Example 10, second patient with AML
  DHO plasma level threshold achieved: 2,900 ng/mL
DHODH [7]; [9]
  time remained above the DHO threshold: 84 h
  time to achieve the DHO plasma level threshold: < 24 h
DHODH [7]; Example 11, patient with AML
  DHO plasma level threshold achieved: 133 ng/mL
DHODH [7]; [10]
  time remained above the DHO threshold: 84 h
  time to achieve the DHO plasma level threshold: less than 2 hours
